Columns and labels:
[1] = tested on: HOP-92; assay: NCI 60-cell drug screen, Non-Small Cell Lung Cancer HOP-92; type: cell-based, human; conditions: 1.00E−5 Molar
[2] = tested on: COLO 205; assay: NCI 60-cell drug screen, Colon Cancer COLO 205; type: cell-based, human; conditions: 1.00E−5 Molar
[3] = tested on: HCT-116; assay: NCI 60-cell drug screen, Colon Cancer HCT-116; type: cell-based, human; conditions: 1.00E−5 Molar
[4] = tested on: NCI-H522; assay: NCI 60-cell drug screen, Non-Small Cell Lung Cancer NCI-H522; type: cell-based, human; conditions: 1.00E−5 Molar
[5] = tested on: A498; assay: NCI 60-cell drug screen, Renal Cancer A498; type: cell-based, human; conditions: 1.00E−5 Molar
[6] = tested on: SNB-75; assay: NCI 60-cell drug screen, CNS Cancer SNB-75; type: cell-based, human; conditions: 1.00E−5 Molar
[7] = tested on: LOX IMVI; assay: NCI 60-cell drug screen, Melanoma LOX IMVI; type: cell-based, human; conditions: 1.00E−5 Molar
[8] = tested on: IGROV1; assay: NCI 60-cell drug screen, Ovarian Cancer IGROV1; type: cell-based, human; conditions: 1.00E−5 Molar
[9] = tested on: HL-60(TB); assay: NCI 60-cell drug screen, Leukemia HL-60(TB); type: cell-based, human; conditions: 1.00E−5 Molar
[10] = tested on: PC-3; assay: NCI 60-cell drug screen, Prostate Cancer PC-3; type: cell-based, human; conditions: 1.00E−5 Molar
[11] = tested on: 60 kinds of different human cancer cells; assay: NCI 60-cell drug screen, whole panel (One Dose Mean Graph); type: cell-based; conditions: mean over the cell lines of the panel; 1.00E−5 Molar
[12] = tested on: SVG p12; assay: MTT assay, SVG p12 normal cell; conditions: concentration 10 μM, normal cell
[13] = tested on: OVCAR-8; assay: NCI 60-cell drug screen, Ovarian Cancer OVCAR-8; type: cell-based, human; conditions: 1.00E−5 Molar
[14] = tested on: SR; assay: NCI 60-cell drug screen, Leukemia SR; type: cell-based, human; conditions: 1.00E−5 Molar
[15] = tested on: 786-0; assay: NCI 60-cell drug screen, Renal Cancer 786-0; type: cell-based, human; conditions: 1.00E−5 Molar
[16] = tested on: OVCAR-4; assay: NCI 60-cell drug screen, Ovarian Cancer OVCAR-4; type: cell-based, human; conditions: 1.00E−5 Molar
[17] = tested on: UO-31; assay: NCI 60-cell drug screen, Renal Cancer UO-31; type: cell-based, human; conditions: 1.00E−5 Molar
[18] = tested on: HCC-2998; assay: NCI 60-cell drug screen, Colon Cancer HCC-2998; type: cell-based, human; conditions: 1.00E−5 Molar
[19] = tested on: NCI/ADR-RES; assay: NCI 60-cell drug screen, Ovarian Cancer NCI/ADR-RES; type: cell-based, human; conditions: 1.00E−5 Molar
Method: In brief, cellular protein levels were determined after 48 hours of drug exposure by sulforhodamine B colorimetry. Through the use of a time 0 cell control, the cell growth can be determined for each cell line thus allowing calculations of the 50% growth inhibitory concentration (GI50), the total growth inhibition (TGI), and the 50% lethal concentration (LC50). Comparison to plates not exposed to drug permits determination of concentration and times of exposure conferring 50% net growth inhibition (GI50), TGI, and 50% cell kill (LC50).
From the data analysis it follows that approximately 95% of the actives (potent anticancer drugs) from the 60 cell line screen can be identified. By these criteria, 6 compounds (each with its certification number, refer to Table 2) of the invention were reported that having anticancer activity.
The screening system in United State National Cancer Institute (NCI) consists of 60 kinds of different human cancer cells, which can be used to assay the growth-inhibiting ability or cell toxicity of a compound against various cancer and tumor at a certain concentration.
NCI had selected 6 compounds f1-0, f1-1, f3-1, f1-11, f1-2 and f1-15 as test compounds (Table 2). Among these compounds, compound f1-1 was effective against renal cancer cell strain CAKI-1, and could achieve an inhibition effect on the growth of said cancer cell up to −8.01. Compound f1-11 could achieve inhibiting effects against leukemia cell line CCRF-CEM and RPMI-8226, up to −15.39 and −60.17, respectively. Compound f1-2 was effective against central nervous system cancer cell line SNB-75, and could achieve an effect of inhibiting said cancer cell growth up to −9.55. Compound f1-15 was effective against leukemia (blood cancer) cell line K-562, MOLT-4, and RPMI-8226, and could achieve effects of inhibiting said cancer cells growth up to −31.59, −2.90 and −13.69, respectively. Further, compound f1-15 was effective also against renal cancer cell line CAKI-1, and could achieve an effect of inhibiting said cancer cell growth up to −14.89.

[20] = tested on: HCT-15; assay: NCI 60-cell drug screen, Colon Cancer HCT-15; type: cell-based, human; conditions: 1.00E−5 Molar
[21] = tested on: M14; assay: NCI 60-cell drug screen, Melanoma M14; type: cell-based, human; conditions: 1.00E−5 Molar
[22] = tested on: A549/ATCC; assay: NCI 60-cell drug screen, Non-Small Cell Lung Cancer A549/ATCC; type: cell-based, human; conditions: 1.00E−5 Molar
[23] = tested on: U251; assay: NCI 60-cell drug screen, CNS Cancer U251; type: cell-based, human; conditions: 1.00E−5 Molar
[24] = tested on: SF-295; assay: NCI 60-cell drug screen, CNS Cancer SF-295; type: cell-based, human; conditions: 1.00E−5 Molar
[25] = tested on: MDA-MB-231/ATCC; assay: NCI 60-cell drug screen, Breast Cancer MDA-MB-231/ATCC; type: cell-based, human; conditions: 1.00E−5 Molar
[26] = tested on: SK-MEL-5; assay: NCI 60-cell drug screen, Melanoma SK-MEL-5; type: cell-based, human; conditions: 1.00E−5 Molar
[27] = tested on: ACHN; assay: NCI 60-cell drug screen, Renal Cancer ACHN; type: cell-based, human; conditions: 1.00E−5 Molar
[28] = tested on: GBM8401; assay: MTT assay, GBM8401 tumor cell; conditions: for Cell survival rate (%) GBM8401: concentration 10 μM, tumor cell
[29] = tested on: SF-539; assay: NCI 60-cell drug screen, CNS Cancer SF-539; type: cell-based, human; conditions: 1.00E−5 Molar
[30] = tested on: NCI-H322M; assay: NCI 60-cell drug screen, Non-Small Cell Lung Cancer NCI-H322M; type: cell-based, human; conditions: 1.00E−5 Molar
[31] = tested on: SN12C; assay: NCI 60-cell drug screen, Renal Cancer SN12C; type: cell-based, human; conditions: 1.00E−5 Molar
[32] = tested on: HOP-62; assay: NCI 60-cell drug screen, Non-Small Cell Lung Cancer HOP-62; type: cell-based, human; conditions: 1.00E−5 Molar
[33] = tested on: BT-549; assay: NCI 60-cell drug screen, Breast Cancer BT-549; type: cell-based, human; conditions: 1.00E−5 Molar
[34] = tested on: MOLT-4; assay: NCI 60-cell drug screen, Leukemia MOLT-4; type: cell-based, human; conditions: 1.00E−5 Molar
[35] = tested on: GBM8901; assay: MTT assay, GBM8901 tumor cell; conditions: for Cell survival rate (%) GBM8901: concentration 10 μM, tumor cell
[36] = tested on: SK-MEL-28; assay: NCI 60-cell drug screen, Melanoma SK-MEL-28; type: cell-based, human; conditions: 1.00E−5 Molar
[37] = tested on: UACC-257; assay: NCI 60-cell drug screen, Melanoma UACC-257; type: cell-based, human; conditions: 1.00E−5 Molar
[38] = tested on: SK-OV-3; assay: NCI 60-cell drug screen, Ovarian Cancer SK-OV-3; type: cell-based, human; conditions: 1.00E−5 Molar

`CN(C)CCCSc1nc2ccc3c(c2[nH]1)C(=O)c1ccccc1C3=O` [f1-15, 2-(3-(dimethylamino)propylthio)-1H-anthra[1,2-d]imidazole-6,11-dione] was tested, and the “Growth Percent, HOP-92” value [1] was 15.99%, the “Growth Percent, COLO 205” value [2] was 62.01% and the “Growth Percent, HCT-116” value [3] was 27.58%. For the same compound, the “Growth Percent, NCI-H522” value [4] was 69.28%, the “Growth Percent, A498” value [5] was 76.16% and the “Growth Percent, SNB-75” value [6] was 50.54%. For the same compound, the “Growth Percent, LOX IMVI” value [7] was 28.57%, the “Growth Percent, IGROV1” value [8] was 30.89% and the “Growth Percent, HL-60(TB)” value [9] was 12.74%. The “Growth Percent, PC-3” value [10] was 36.71%, the “Growth Percent, Mean” value [11] was 47.41% and the “Cell survival rate (%) SVG p12” value [12] was 11 ± 6%. For the same compound, the “Growth Percent, OVCAR-8” value [13] was 61.89%, the “Growth Percent, SR” value [14] was 3.09% and the “Growth Percent, 786-0” value [15] was 77.63%. The “Growth Percent, OVCAR-4” value [16] was 29.72%, the “Growth Percent, UO-31” value [17] was 25.50% and the “Growth Percent, HCC-2998” value [18] was 72.67%. The “Growth Percent, NCI/ADR-RES” value [19] was 54.32%, the “Growth Percent, HCT-15” value [20] was 36.27% and the “Growth Percent, M14” value [21] was 77.32%. The “Growth Percent, A549/ATCC” value [22] was 51.59%, the “Growth Percent, U251” value [23] was 74.11% and the “Growth Percent, SF-295” value [24] was 76.03%. The “Growth Percent, MDA-MB-231/ATCC” value [25] was 56.24%, the “Growth Percent, SK-MEL-5” value [26] was 62.55% and the “Growth Percent, ACHN” value [27] was 24.30%. For the same compound, the “Cell survival rate (%) GBM8401” value [28] was 8 ± 11%, the “Growth Percent, SF-539” value [29] was 57.50% and the “Growth Percent, NCI-H322M” value [30] was 70.75%. For the same compound, the “Growth Percent, SN12C” value [31] was 37.66%, the “Growth Percent, HOP-62” value [32] was 51.96% and the “Growth Percent, BT-549” value [33] was 75.75%. The “Growth Percent, MOLT-4” value [34] was −2.90%, the “Cell survival rate (%) GBM8901” value [35] was 63 ± 4% and the “Growth Percent, SK-MEL-28” value [36] was 102.07%. For the same compound, the “Growth Percent, UACC-257” value [37] was 114.50% and the “Growth Percent, SK-OV-3” value [38] was 32.36%.
`O=C1c2ccccc2C(=O)c2c1ccc1nc3n(c21)CCS3` [f3-1, 2-(2-N-ethylthio)-1H-anthra[1,2-d]imidazole-6,11-dione] was tested, and the “Growth Percent, HOP-92” value [1] was 88.67%, the “Growth Percent, COLO 205” value [2] was 95.22% and the “Growth Percent, HCT-116” value [3] was 68.43%. For the same compound, the “Growth Percent, NCI-H522” value [4] was 80.62%, the “Growth Percent, A498” value [5] was 73.67% and the “Growth Percent, SNB-75” value [6] was 95.57%. The “Growth Percent, LOX IMVI” value [7] was 65.93%, the “Growth Percent, IGROV1” value [8] was 62.31% and the “Growth Percent, HL-60(TB)” value [9] was 78.84%. The “Growth Percent, PC-3” value [10] was 93.92%, the “Growth Percent, Mean” value [11] was 75.99% and the “Cell survival rate (%) SVG p12” value [12] was 62 ± 1%. The “Growth Percent, OVCAR-8” value [13] was 75.40%, the “Growth Percent, SR” value [14] was 60.62% and the “Growth Percent, 786-0” value [15] was 92.44%. The “Growth Percent, OVCAR-4” value [16] was 89.29%, the “Growth Percent, UO-31” value [17] was 45.79% and the “Growth Percent, HCC-2998” value [18] was 94.76%. The “Growth Percent, NCI/ADR-RES” value [19] was 84.08%, the “Growth Percent, HCT-15” value [20] was 57.15% and the “Growth Percent, M14” value [21] was 78.50%. For the same compound, the “Growth Percent, A549/ATCC” value [22] was 81.15%, the “Growth Percent, U251” value [23] was 72.48% and the “Growth Percent, SF-295” value [24] was 78.56%. The “Growth Percent, MDA-MB-231/ATCC” value [25] was 94.00%, the “Growth Percent, SK-MEL-5” value [26] was 65.88% and the “Growth Percent, ACHN” value [27] was 59.35%. For the same compound, the “Cell survival rate (%) GBM8401” value [28] was 42 ± 16%, the “inhibitory effect against tumor cell GBM8401” value ([28]; survival rate less than 80%) was “exhibited inhibitory effect against tumor cell GBM8401” and the “Growth Percent, SF-539” value [29] was 74.06%. For the same compound, the “Growth Percent, NCI-H322M” value [30] was 72.06%, the “Growth Percent, SN12C” value [31] was 74.93% and the “Growth Percent, HOP-62” value [32] was 85.26%. For the same compound, the “Growth Percent, BT-549” value [33] was 87.90%, the “Growth Percent, MOLT-4” value [34] was 58.39% and the “Cell survival rate (%) GBM8901” value [35] was 37 ± 4%. For the same compound, the “inhibitory effect against tumor cell GBM8901” value ([35]; survival rate less than 80%) was “exhibited inhibitory effect against tumor cell GBM8901”, the “Growth Percent, SK-MEL-28” value [36] was 109.36% and the “Growth Percent, UACC-257” value [37] was 80.59%. The “Growth Percent, SK-OV-3” value [38] was 87.43%.
